In brackets after ≈: the same amount, converted by molar mass.

The conditions of data set [1]: cited from earlier work.
In data set [2] the test system is Pseudomonas aeruginosa (WACC91 and PA-001) biofilm. Kind of data set: Crystal violet staining of biofilm-protected P. aeruginosa microcolonies. The data set is classed as cell-based. How it is done:
Laboratory strains of Pseudomonas aeruginosa (WACC91 and PA-001) were thawed (stored as 50% glycerol stocks at −70° C.+2° C.) and streaked out on blood agar plates. […] In this case cultures were propagated to stationary phase to induce stress responses needed to induce biofilm formation on seeding for treatment. […] Biofilm formation was complete approximately 24-48 hours following seeding, this was confirmed by a minimum of 1.8 absorbance units at 600 nm. Prebiotic solution collected from C1 was applied to B0 cultures that had achieved biofilm formation. A 10 dose dilution series of the prebiotic test solution in PMM was prepared (Table 2) to determine the optimal dose range for biofilm disruption of B0 cultures, with 50 μl total volume added to each B0 culture. […] The CV stain was solubilised with 125 ul of 30% acetic acid and absorbance to indicate biofilm density (also referred to as biofilm biomass) was quantified at 550 nm following an incubation of 15 minutes at room temperature. […] Biofilm formation was complete approximately 24-48 hours following seeding as confirmed by a minimum of 1.8 absorbance units at 600 nm. […] The CV stain was solubilised with 125 ul of 30% acetic acid and absorbance to indicate biofilm biomass quantified at 550 nm following an incubation of 15 minutes.

The subject of data set [3] is P. aeruginosa clinical isolates from patients with cystic fibrosis. Kind of data set: Crystal violet staining of biofilm microcolonies from clinical isolates. It is filed as cell-based. The conditions noted are these: for Biofilm breakdown (% from baseline) / Isolates responsive to breakdown (% of isolates): 0.5-1.25 ug/ml, 24 hours.
For data set [4] the test system is unchanged. Kind of data set: Resazurin staining of biofilm microcolonies from clinical isolates. The conditions noted are these: for Altered metabolism with treatment (% of isolates) / Metabolism change (% from baseline): 0.5-1.25 ug/ml, 24 hours. Background: Resazurin is reduced to fluorescent resorufin, in cell work by metabolically active cells.
Method: Cultures of interest were thawed and streaked out on blood agar plates and allowed to grow at 37° C., 5% CO2 for 12-24 hours until suitable growth was achieved to enable further culturing. An isolated colony was looped into 5 ml of LB broth and incubated overnight at 37° C., 5% CO2.
Stock cultures were diluted 1:1000 in 1% of appropriate media (LB for mucoid P. aeruginosa strains; M63 medium was used for P. aeruginosa rough strains 001-11R; PMM for all other strains) to achieve approximately 10^8 cfu/ml (confirmed by measuring 0.02 absorbance units, approximately 1.8 ul in 2 ml of media). Diluted working cultures were mixed well and seeded at 200 ul/well across a 96 well microtitre plate, with biofilm formation complete approximately 24-48 hours following seeding.
Treatments were completed in duplicate for all bacterial strains across the dose range used.
Viable cells reduce the blue resazurin dye to the pink-fluorescent resorufin form. Following incubation fluorescence was quantified by excitation wavelength of 540 nm and an emission wavelength of 590 nm using Enspire microplate reader.
Another data set concerns E. coli (ATCC 25922). Kind of data set: Antimicrobial activity on planktonic bacteria, flow cytometry and broth microdilution. Particulars: for MIC: Escherichia coli, ATCC25922, read-out: minimum inhibitory concentration (MIC); for concentration at which first significant phenotypic change (decrease in SYTO 9 fluorescence) was observed: flow cytometry, 3 hours. For orientation: Flow cytometry measures light scatter and fluorescence of single cells or particles in a stream.

Data set [5] has as its system P. aeruginosa (ATCC 27853). Described as above. Particulars: for MIC: Pseudomonas aeruginosa, ATCC27853, read-out: minimum inhibitory concentration (MIC); for concentration at which first significant phenotypic change (decrease in SYTO 9 fluorescence) was observed: flow cytometry, 3 hours.
Method: (§3) This was undertaken in parallel with a conventional broth microdilution (BMD) assay.
(§4) Two-fold serial dilutions of D- or L-lactate were performed in a 96-well plate, ranging from 0.008 grams per litre to 8 g/L with a volume of 50 μL per well.
(§5) The bacterial suspensions were prepared from cultures grown overnight in trypticase soya broth (TSB). Each culture was diluted 1:1000 in Hanks buffered saline solution (HBSS), stained with 1 μL of SYTO® 9, incubated for a minimum of 8 minutes with shaking, and enumerated by flow cytometry. The TSB cultures were then adjusted to 2×10^5 cells per mL in CAMHB.
(§6) To the replicate dilution series of lactic acids, 50 μL of bacterial suspension was added for a final volume of 100 μL per well, each row containing a concentration gradient ranging from 0.004 to 4 g/L. There were 3 organisms per plate (E. coli, P. aeruginosa, S. aureus), set up in duplicate. […] These wells were representative of the suspension density at the time of inoculation.
(§7) For conventional BMD, the incubation time was 24 hours. For flow cytometry, the incubation time was 3 hours. For flow cytometry, following incubation 100 μL of HBSS, containing SYTO® 9 at a concentration of 10 μM was added to each well of the plate for a final dye concentration of 5 μM. The plates were then incubated at ambient temperature in the dark for 10 minutes, loaded onto the Attune™ Autosampler, and the data acquired. The plates were run simultaneously on two different Attune™ cytometers.
The test system of another data set is S. aureus (ATCC 33592). Described as above. Particulars: for MIC: Staphylococcus aureus, ATCC33592, read-out: minimum inhibitory concentration (MIC); for concentration at which first significant phenotypic change (decrease in SYTO 9 fluorescence) was observed: flow cytometry, 3 hours.
In data set [6] the test system is Pseudomonas aeruginosa (WACC91) biofilm-protected microcolonies. The data set is described as follows: Resazurin staining, bacterial metabolic activity of biofilm-protected cultures. It is filed as cell-based. How it is done:
Laboratory strains of Pseudomonas aeruginosa (WACC91 and PA-001) were thawed (stored as 50% glycerol stocks at −70° C.+2° C.) and streaked out on blood agar plates. […] In this case cultures were propagated to stationary phase to induce stress responses needed to induce biofilm formation on seeding for treatment.
Biofilm formation was complete approximately 24-48 hours following seeding, this was confirmed by a minimum of 1.8 absorbance units at 600 nm.
Prebiotic solution collected from C1 was applied to B0 cultures that had achieved biofilm formation. A 10 dose dilution series of the prebiotic test solution in PMM was prepared (Table 2) to determine the optimal dose range for biofilm disruption of B0 cultures, with 50 μl total volume added to each B0 culture.
A 12-fold serial dilution of tobramycin (99% pure tobramycin sulfate powder, Research Products International) standards were prepared in PMM (8 ng/ml-16 ug/ml), to act as a reference point for assessing biofilm disruption activity observed by the prebiotic test treatment (Table 2). Tobramycin is an antibiotic commonly used to treat chronic respiratory bacterial infections, particularly Pseudomonas aeruginosa. A total of 50 ul of tobramycin standards were added to B0 cultures that had achieved biofilm formation. […]

Data set [7] has as its system Pseudomonas aeruginosa biofilm. The data set is described as follows: Crystal violet biofilm formation and mature biofilm assay. The data set is classed as cell-based. Particulars: added at t=0 (de novo forming) or t=24 hours (established), pH 7.0, FIG. 5. On the procedure: (§1) After addition of treatments, all plates were then incubated for 24 hours at 37° C.
(§2) Following incubation at room temperature for 15 minutes the microtiter plates were washed 3-4 times with water by submerging in water, with blotting to rid the plate of all excess cells and dye. Plates were left to dry overnight. The CV stain was solubilised with 125 ul of 30% acetic acid and absorbance to indicate biofilm biomass quantified at 550 nm following an incubation of 15 minutes, normalised to vehicle only.

In data set [8] the test system is Staphylococcus aureus biofilm. The data set is described as above. It is filed as cell-based. Particulars: added at t=0 (de novo forming) or t=24 hours (established), pH 7.0, FIG. 5. How it is done:
as §1, §2

Another data set relates to S. epidermidis biofilm. The description is as above. The data set is classed as cell-based, Staphylococcus epidermidis. Particulars: added at t=0 (de novo forming) or t=24 hours (established), pH 7.0, FIG. 5. How it is done:
as §1, §2

For data set [9] the following is noted: Octanol-Water; cited from earlier work.
The conditions of data set [10]: rabbit; cited from earlier work.
The conditions of data set [11]: rat, 4 h; cited from earlier work.

Method for E. coli (ATCC 25922): as §3, §4, §5, §6, §7
Method for S. aureus (ATCC 33592): as §3, §4, §5, §6, §7

Take `CCCC(O)C(=O)O` (stereo not drawn) [2-hydroxypentanoic acid]: in data set [1], the Water solubility is 1640 mM.
Regarding `C[C@@H](O)C(=O)O` [D-lactic acid, (2R)-2-hydroxypropanoic acid], in data set [2] (pure grade standards run against prebiotic test solution dilutions, methods of Example 1), the “active dose range for biofilm disruption” value lay within 0.25 to 1.25 mg/mL. Further, the “Biofilm breakdown (% from baseline)” value is given as 17.2 % from baseline in data set [3] (Mucoid isolates) and 23 % from baseline in data set [3] (Non-mucoid isolates). Besides, the “Isolates responsive to breakdown (% of isolates)” value was 60 % of isolates in data set [3] (Mucoid isolates) and 53.8 % of isolates in [3] (Non-mucoid isolates). In addition, the “share of all strains showing evidence of biofilm disruption” value in [3] (all strains tested) is reported as “Greater than 50%”. For the same compound, the “Altered metabolism with treatment (% of isolates)” value is recorded as 75 % of isolates in data set [4] (Mucoid isolates) and 69.2 % of isolates in data set [4] (Non-mucoid isolates). In addition, the entries for the “Metabolism change (% from baseline)” value in data set [4] (Mucoid isolates) and in [4] (Non-mucoid isolates) were 37 % from baseline and 46.1 % from baseline, respectively. The “share of all strains tested showing a change in metabolic activity” value in [4] (all strains tested) is given as “More than 65%”. Besides, the MIC (in the data set on E. coli (ATCC 25922); in data set [5]; in the data set with S. aureus (ATCC 33592)) was 4000 µg/mL (≈ 44.4 mM) in each case. Moreover, the “concentration at which first significant phenotypic change (decrease in SYTO 9 fluorescence) was observed” value (in the data set on E. coli (ATCC 25922); in data set [5]; in the data set with S. aureus (ATCC 33592)) was 1 g/L in each case.
`NC[C@H]1O[C@H](O[C@H]2[C@H](O)[C@@H](O[C@H]3O[C@H](CO)[C@@H](O)[C@H](N)[C@H]3O)[C@H](N)C[C@@H]2N)[C@H](N)C[C@@H]1O` [tobramycin]: in data set [2] (tobramycin 16 ug/ml, bioactive dose), the reduced biofilm density was 80-90%. The “concentrations at which reduced metabolic activity was observed” value in [6] (WACC91, 24 hrs treatment, supernatants) was in the range of 1 to 16 µg/mL. The “inhibition of metabolic activity relative to prebiotic test solution (90%)” value in data set [6] (bioactive dose 16 ug/ml) is “comparable”.
Regarding `CCC(O)C(=O)O` (stereo not drawn) [2-hydroxybutanoic acid], the Water solubility in [1] was 1930 mM.
Turning to `C[C@H](O)C(=O)O` [L-lactic acid, reference compound], the “biofilm mass (crystal violet) compared to baseline” value (in [7]; in [8]; in the data set on S. epidermidis biofilm) was “not” each time. Besides, the MIC (with E. coli (ATCC 25922); in data set [5]; with S. aureus (ATCC 33592)) was 4000 µg/mL (≈ 44.4 mM) throughout. The “concentration at which first significant phenotypic change (decrease in SYTO 9 fluorescence) was observed” value (in the data set with E. coli (ATCC 25922); in [5]; in the data set on S. aureus (ATCC 33592)) was 1 g/L each time.
As to `CCCCC(O)C(=O)O` (stereo not drawn) [2-hydroxyhexanoic acid], the Water solubility in data set [1] was 270 mM.
Broadly, the Log P is the decadic logarithm of the partition coefficient of the neutral form, usually between octanol and water. For the compound `O=C(O)C(O)c1ccccc1` (stereo not drawn) [2-hydroxy-2-phenylacetic acid], in [1], the Water solubility was 1140 mM. Moreover, the lipophilicity (Log P) in data set [9] was 0.67.
Take `CC(O)C(=O)O` (stereo not drawn) [2-hydroxypropanoic acid]: the “LD50 Dermal” value in [10] is >2000 mg/kg (rabbit). The “LC50 Inhalation” value in [11] is reported as >7.94 mg/L (rat) 4 h.
For `CC(O)C(=O)O` (racemic) [racemic mix (D/L), D/L lactic acid], the “biofilm mass (crystal violet) compared to baseline” value (in data set [7]; in data set [8]; with S. epidermidis biofilm) was “variable results” each time.

Source of the values: patent US20240397944A1, “METHODS FOR BIOFILM DISRUPTION” (Neolixir Limited, priority 2021, published 2024).
